Results: patent publication US11628146B2, “Estrogen receptor ligand treatment for neurodegenerative diseases” (The Regents of the University of California, priority 2014, dated 2023)
“Also recorded” adds a separate entry of the source.

What was measured:
EAE in C57BL/6 mice = test: Rotarod testing of motor coordination and balance in EAE, C57BL/6 mice; format: in vivo, mouse; parameters: key to Rotarod Score: n.s. = not significant; *p < 0.05; ***p = 0.0004; ****p < 0.0001; n.i. = not informative; details: for Rotarod Score: significance vs vehicle
Protocol: Rotarod Testing. Motor behavior was tested up to two times per week for each mouse using a rotarod apparatus (Med Associates Inc., St. Albans, Vt.). Briefly, animals were placed on a rotating horizontal cylinder for a maximum of 200 seconds. The amount of time the mouse remained walking on the cylinder, without falling, was recorded. Each mouse was tested on a speed of 3-30 rpm and given three trials for any given day. The three trials were averaged to report a single value for an individual mouse, and then averages were calculated for all animals within a given treatment group. The first two trial days prior to immunization (day 0), served as practice trials.

[1] = system: spinal cords of C57BL/6 females with EAE; test: Spinal cord neuropathology (immunohistochemistry) in EAE; format: in vivo, mouse; details: vs vehicle treated EAE
Protocol: Histological Preparation. Mice were exposed to a lethal dose of isoflurane and perfused transcardially with ice-cold 1×PBS for 8-15 min, followed by 10% formalin for 10-15 min. Spinal cords and brains were dissected and submerged in 10% formalin overnight at 4° C., followed by 30% sucrose in PBS for 24 h. Tissues were embedded in […] solution for cryostat sectioning then post-fixed overnight in 10% formalin and cryoprotected in 30% sucrose. The embedded tissues were stored in −80° C. after flash frozen in dry ice. 40 μm thick free-floating spinal cord cross-sections, and sagittal brain sections were obtained with a microtome b cryostat (model HM505E) at −20° C. Tissues were collected serially and stored in 1×PBS with 1% sodium azide in 4° C. until immunohistochemistry.
Immunofluorescence. Prior to histological staining, […] free-floating sections were thoroughly washed with 1×PBS to remove residual sodium azide. In the case of anti-MBP labeling, tissue sections were processed with an additional 1 hour incubation with 5% glacial acetic acid in 100-proof ethanol at room temperature (RT). After washing tissue sections were permeabilized with 0.3% TritonX-100 and 2% normal goat serum in 1×PBS for 30 minutes at room temperature and blocked with 10% normal goat serum in 1×PBS for 1 hour. Tissues were then incubated with primary antibodies overnight in 4° C. The following primary antibody (Ab) were used: Rat anti-MBP (Millipore) at 1:1000 dilutions, Rabbit anti-NF200 (Sigma Aldrich) at 1:750 dilutions, Rabbit anti-beta-APP (Life Technologies) at 1:200 dilutions, Mouse anti-NeuN at 1:1000 dilutions (Millipore), Rabbit anti-PSD95, and Rabbit anti-Synapsin 1 at 1:500 dilutions (Millipore), and Rat anti-CD45 at 1:1500 dilutions (Millipore). The next day tissues were washed and incubated with secondary antibodies conjugated to Cy5 or Cy3 (Millipore) for 1 hour at room temperature. A nuclear stain DAPI (2 ng/mL; Molecular Probes) was added 10 minutes prior to final washes after secondary Ab incubation. Sections were mounted on slides, allowed to semi-dry, and cover slipped in fluoromount G (Fisher Scientific). IgG-control experiments were performed for all primary Ab, and only non-immunoreactive tissues under these conditions were analyzed.
Chromagen Immunohistochemistry. […] Tissues were then incubated with primary antibodies overnight in 4° C. The following primary antibodies were used: Rat anti-CD3 at 1:2000 dilutions (BD Pharmingen), anti-Calbindin D28K at 1:1000 dilutions (Millipore), and Rabbit anti-Iba1 at 1:10000 dilutions (Wako Chemicals), were added for 2 hour at room temperature, and then placed in 4° C. overnight. Tissue sections then followed with secondary Ab labeling at 1:1000 dilutions (Vector labs) for 1 hour at room temperature and then with Avidin-Biotin Conjugation solution (Vector Labs) for 1 hour at room temperature. Tissue sections were treated with DAB peroxidase substrate (Vector labs) according to manufacturer instructions. IgG-control experiments were performed for all primary Ab, and only non-immunoreactive tissues under these conditions were analyzed.
Microscopy and Quantification. Three spinal cord cross-sections at the C5-12 level from each mouse (n=3-6) were captured under microscope at 10× magnification. To quantify demyelination in the spinal cord and cerebellum, white matter was manually delineated on the basis of DAPI staining, and MBP staining intensity was calculated and reported in the sampled area. Axonal damage was assessed by counting beta-APP^+ cells in a confocal 10× microscope in spinal cord. Axonal densities were calculated by counting the number of NF200^+ or NeuN^+ neuronal cells in a 10× confocal image in the sampled area of the captured tissue section. Cerebellar Purkinje (Calbindin^+) cells were manually counted using a brightfield 10× microscope over the entire sagittal cerebellum. […]

[2] = Dissolution of the compound in the oil vehicle; format: physicochemical; details: merely pipetting
Protocol: Reagents. AC-186 was dissolved in either Miglyol 812N liquid oil (Sasol North America) or sesame oil (Sigma Aldrich) as following concentration; 1.5 mg/mL for 3 mg/kg group, 5 mg/mL for 10 mg/kg group, and 15 mg/mL for 30 mg/kg group. Diarylpropionitrile (DPN, Tocris Biosciences) was dissolved in 10% molecular-grade ethanol and diluted with 90% of either Miglyol 812N liquid oil or sesame oil.
Three doses of the AC-186 compound were tested in C57BL6 female mice: low (3 mg/kg, every other day), medium (10 mg/kg, every other day), and high (30 mg/kg, every other day), each injected subcutaneously in a sesame oil vehicle. The ERβ ligand diarylpropionitrile (DPN) was tested as a positive control because DPN can partially ameliorate EAE and because the treatment effects in EAE experiments can vary based on the level of disease severity within an experiment. Direct comparisons between treatments were only made between treatment groups within a single EAE experiment and not between treatment groups of different EAE experiments. […] The difference in improvement between the 30 mg/kg AC-186 group and all other groups increased with time.

[3] = 10 mg/kg every other day in miglyol, EAE day 60
[4] = 30 mg/kg every other day in miglyol

Question: What does the source list for `Oc1ccc(C2(c3ccccc3F)CCC(F)(F)CC2)cc1` [AC-186]?
Answer: Rotarod Score (EAE in C57BL/6 mice; C57BL/6 F, AC186 3 mg/kg, sesame vehicle): n.s.; Rotarod Score (EAE in C57BL/6 mice; C57BL/6 F, AC186 10 mg/kg, miglylol vehicle): n.s; Rotarod Score (EAE in C57BL/6 mice; C57BL/6 F, AC186 10 mg/kg, sesame vehicle): n.s.; Rotarod Score (EAE in C57BL/6 mice; C57BL/6 F, AC186 30 mg/kg, miglylol vehicle): *** (***p = 0.0004); Rotarod Score (EAE in C57BL/6 mice; C57BL/6 F, AC186 30 mg/kg, sesame vehicle): n.s.; Rotarod Score (EAE in C57BL/6 mice; C57BL/6 M, AC186 30 mg/kg, miglylol vehicle): **** (****p < 0.0001); Rotarod Score (EAE in C57BL/6 mice; C57BL/6 M, AC186 30 mg/kg, sesame vehicle): n.s.; Rotarod times (EAE in C57BL/6 mice; female C57BL/6, 30 mg/kg in miglyol, vs miglyol vehicle): significant efficacy in the rotarod experiment; also recorded: beneficial effects; also recorded: showed an improvement; also recorded: significant improvement; Rotarod performance at the final two time-points (EAE in C57BL/6 mice; female C57BL/6, 30 mg/kg in sesame oil, days 48 and 50, 200 second test): performed perfectly; Rotarod times (EAE in C57BL/6 mice; female C57BL/6, 30 mg/kg in sesame oil, vs vehicle): No significant effect was observed; Rotarod times (EAE in C57BL/6 mice; male C57BL/6, 30 mg/kg in miglyol, vs miglyol alone): performed significantly better; also recorded: better rotarod scores; Rotarod times (EAE in C57BL/6 mice; male C57BL/6, 30 mg/kg in sesame oil, vs sesame oil alone): did not perform significantly better; Axonal densities / axon numbers (NF200), spinal cord [1, 3]: Neuroprotective effects; also recorded: significantly more axon numbers; Myelin staining intensity (MBP), spinal cord [1, 3]: a trend for somewhat higher MBP staining intensity; beta-APP expression (axonal damage), spinal cord [1, 3]: Neuroprotective effects; also recorded: a trend of less beta-APP staining; CD3 stained cells (T lymphocytes), spinal cord ([1]; 10 mg/kg in miglyol): neither AC-186 dose affected levels of CD3 staining; also recorded: no differences in the number of CD3 stained cells; CD45 immunoreactivity (all immune cells), spinal cord ([1]; 10 mg/kg in miglyol): reduced CD45 staining; also recorded: a reduction of CD45 expression; Iba-1 globoid cells (macrophage like cells), spinal cord ([1]; 10 mg/kg in miglyol): reduced Iba-1 globoid cell staining; also recorded: a significant reduction in the number of Iba-1 stained cells with globoid morphology; Axonal densities / axon numbers (NF200), spinal cord [1, 4]: significantly preserved axon numbers; also recorded: sparing of axons and myelin; also recorded: significantly more axon numbers; Myelin staining intensity (MBP), spinal cord [1, 4]: a trend for sparing myelin; also recorded: observed as significant; also recorded: a trend for somewhat higher MBP staining intensity; beta-APP expression (axonal damage), spinal cord [1, 4]: reduced axonal damage; also recorded: significantly less expression of beta-APP; CD3 stained cells (T lymphocytes), spinal cord ([1]; 30 mg/kg in miglyol): neither AC-186 dose affected levels of CD3 staining; also recorded: no differences in the number of CD3 stained cells; CD45 immunoreactivity (all immune cells), spinal cord ([1]; 30 mg/kg in miglyol): reduced CD45 staining; also recorded: lowering CD45 and Iba-1; also recorded: a reduction of CD45 expression; Iba-1 globoid cells (macrophage like cells), spinal cord ([1]; 30 mg/kg in miglyol): reduced Iba-1 globoid cell staining; also recorded: lowering CD45 and Iba-1; also recorded: a significant reduction in the number of Iba-1 stained cells with globoid morphology; Time to dissolve in miglyol [2]: 30 s
